Reference: patent US8044038B2 (Fermion Oy, priority 2005, dated 2011)
Structures can show the parent of a compound that is named as a salt. Where two headings read alike, the source gives them in different places.

Assays:
[1] = laser diffraction; for Size of crystals, 10% < / Size of crystals, 50% < / Size of crystals, 90% < / Size of crystals, Mean: quetiapine conc. 20 w-%, ethanol-water 80 w-% (Example 5), 85 w-% (Example 6)
Experimental: In examples 5 and 6 the crystal size analysis was performed using laser diffraction analyser (light scattering). Volume cell was 15 ml, optical length 0.6 cm, obscuration about 8 to 12%. Methyl siloxane was used as a dispersant.

Size of crystals, 10% < [1]	Size of crystals, 50% < [1]	Size of crystals, 90% < [1]	Size of crystals, Mean [1]	90% of the crystals below ([1]; water content of crystallization solvent between 15 to 20 w-%)	size of crystals (ratio of alcohol to water 77:22)	size of crystals (ratio of alcohol to water 91:9)	Compound
10% < 25 μm	50% < 83 μm	90% < 244 μm	Mean: 108 μm				OCCOCCN1CCN(C2=Nc3ccccc3Sc3ccccc32)CC1 [Example 5, quetiapine hemifumarate]
10% < 14 μm	50% < 44 μm	90% < 148 μm	Mean: 60 μm				OCCOCCN1CCN(C2=Nc3ccccc3Sc3ccccc32)CC1 [Example 6, quetiapine hemifumarate]
				below 244 μm	50-100 microns	10-20 microns	OCCOCCN1CCN(C2=Nc3ccccc3Sc3ccccc32)CC1 [quetiapine hemifumarate, 11-(4-[2-(2-hydroxyethoxy)ethyl]-1-piperazinyl]dibenzo[b,f]-1,4-thiazepine hemifumarate (2:1) salt]
